# US8883679B2, “Liquid mycorrhiza compositions” (Novozymes A/S, priority 2007, dated 2014)
# Test system: roots of corn plants
# Assay: endomycorrhizal mean infection percentage (MIP) bioassay
# Assay type: in vivo, Zea Maize 'Golden Bantam'
# Details: both trials
# Description: An endomycorrhizal mean infection percentage (MIP) bioassay was initiated to test mycorrhizal infectivity of a liquid mycorrhizal formulation treated with bactericides. The MIP bioassay is used to determine the effect of endomycorrhizal colonization in the roots of corn plants on the treatment applied. The MIP bioassay was adapted to utilize 15 mL of liquid per pot. The liquid mycorrhizal formulation which was tested was MycoApply Ultra (Novozymes Biologicals), which is a mycorrhizal inoculant that contains several species of endomycorrhizas. For a ready to use fertilizer, the optimal amount of mycorrhizas to be added based on application rate of ready to use fertilizer, mycorrhizal infectivity, and cost effectiveness was 0.1 propagules of mycorrhizas per 1.0 mL of ready to use fertilizer. MycoApply Ultra contains 286 propagules per gram, therefore 0.00034 g MycoApply Ultra in 1 mL of ready to use fertilizer will provide the desired concentration of mycorrhizal propagules, 0.1 prop/mL. The MycoApply Ultra was tested with two different concentrates 10× (0.0034 g/mL) and 100× (0.034 g/mL). The bactericide used in all treatments for Trial 1 was 500 ppm Kathon and 250 ppm Bronopol. There were seven treatment groups, each contained 5 replicates. Treatment 1 was a water only control. […] At harvest the parameter evaluated was percent mycorrhizal colonization. […]
structure (smiles),measurement,value
"O=[N+]([O-])C(Br)(CO)CO [Bronopol, 2-bromo-2-nitro-1,3-propanediol]",ability of mycorrhizas to germinate and infect roots in presence of bactericide,increase
